Source: patent publication US9102719B2, “SOGA polynucleotides and polypeptides and uses thereof” (University of North Carolina at Chapel Hill, priority 2009, dated 2015)

Experiments:
SOGA = assay type: cell-based, mouse
Experimental: (§1) Mouse livers were perfused with a Krebs-Ringer-HEPES buffer containing collagenase (Sigma-Aldrich). Livers were isolated and cells were dispersed by gentle shaking and filtered through sterile nylon gauze. Cells were washed twice with sterile phosphate-buffered saline and purified by centrifugation in 50% isotonic Percoll (Sigma-Aldrich). Cells were resuspended with Krebs-Ringer-HEPES+Ca^2+ buffer to a total volume of 10 ml. Viability was validated via trypan blue exclusion and routinely exceeded 90%. Freshly isolated mouse hepatocytes were plated at 10^5 cells per well in 12-well culture plates coated with rat tail collagen I (BD Biosciences). […] SOGA siRNA, AICAR (500 μM) or […] (10 nM) were introduced to the media 48 hours before the measurement of glucose production. siRNA sequences corresponding to base pairs 333-351 and 1988-2007 on the open reading frame of murine SOGA were selected using a rational design algorithm (Invitrogen). […] Glucose was measured by colorimetric assay (Autokit Glucose CII) (Brooks et al., J. Biol. Chem. 282:35069 (2007)). Valine in the medium was measured by a UPLC (Waters) coupled TSQ-Quantum ultra triple quad mass analyzer (ThermoFinigan) in the Biomarkers Facility Core at UNC. Valine was measured in selected reaction monitoring mode (SRM) using the MS/MS transition of 118→72.

ob/ob mice = experiment: Pioglitazone treatment of diabetic ob/ob mice; assay type: in vivo, mouse; conditions: after 4 days of treatment
Experimental: Mice were housed in ventilated isolator cage systems in a pathogen-free barrier facility maintained at 23° C., 55% humidity on a 12-h light/12-h dark cycle. Mice received a standard chow diet consisting of 73% carbohydrate, 18% protein, 4% fat and 5% ash (Purina). Young (3-6 month old) female C57B1/6J calorie restricted (CR) and ad libitum fed (AL) mice were maintained as previously described (Combs et al., Diabetes 52:268 (2003)). Adjustments were made to ensure that CR mice received 70% of the ad libitum food intake. Blood samples were collected at 1300 from the tail tip using heparinized capillary tubes (Fisher) and stored at −20° C. Male ob/ob mice (FVB background strain) received a daily dose of pioglitazone at 0.6 mg/kg BW in 0.025% (w/w) carboxymethylcellulose by oral gavage for 4 days. Control mice received carboxymethylcellulose by oral gavage for 4 days. Blood was collected from the tail tip on day 5 and analyzed for glucose, adiponectin and 25 kDa SOGA. Immediately after the collection of blood samples, ob/ob mice were sacrificed by cervical dislocation for tissue collection. Northern blot analysis for SOGA mRNA and 18S RNA was performed using 20 μg of liver RNA. NOD mice were bred and housed as previously described (Wong et al., J. Immunol. 176:1637 (2006)). Where indicated, diabetic NOD mice were injected with 5 units of insulin (NPH Human Insulin, Isophane Suspension; 100 U/ml Novolin; Novo Nordisk) 24 hours prior to blood collection. Adiponectin transgenic mice were produced as previously described (Combs et al., Endocrinology 145:367 (2004)). Glucose was measured by colorimetric assay. Adiponectin and SOGA were measured by SDS-PAGE analysis using 1 μl of plasma. […] Experimental procedures were approved by IACUC.

NOD mice = experiment: Insulin injection in diabetic NOD mice; assay type: in vivo, mouse; conditions: single injection of insulin 24 hours earlier
Experimental: Mice were housed in ventilated isolator cage systems in a pathogen-free barrier facility maintained at 23° C., 55% humidity on a 12-h light/12-h dark cycle. Mice received a standard chow diet consisting of 73% carbohydrate, 18% protein, 4% fat and 5% ash (Purina). Young (3-6 month old) female C57B1/6J calorie restricted (CR) and ad libitum fed (AL) mice were maintained as previously described (Combs et al., Diabetes 52:268 (2003)). Adjustments were made to ensure that CR mice received 70% of the ad libitum food intake. Blood samples were collected at 1300 from the tail tip using heparinized capillary tubes (Fisher) and stored at −20° C. Male ob/ob mice (FVB background strain) received a daily dose of pioglitazone at 0.6 mg/kg BW in 0.025% (w/w) carboxymethylcellulose by oral gavage for 4 days. Control mice received carboxymethylcellulose by oral gavage for 4 days. Blood was collected from the tail tip on day 5 and analyzed for glucose, adiponectin and 25 kDa SOGA. Immediately after the collection of blood samples, ob/ob mice were sacrificed by cervical dislocation for tissue collection. Northern blot analysis for SOGA mRNA and 18S RNA was performed using 20 μg of liver RNA. NOD mice were bred and housed as previously described (Wong et al., J. Immunol. 176:1637 (2006)). […] Glucose was measured by colorimetric assay. Adiponectin and SOGA were measured by SDS-PAGE analysis using 1 μl of plasma. […]

[1] = system: primary murine hepatocytes; experiment: Hepatocyte glucose production (colorimetric assay); assay type: cell-based, mouse; conditions: adiponectin exposure (adipocyte conditioned media)
Experimental: as §1

In the case of NC(=O)c1ncn([C@@H]2O[C@H](CO)[C@@H](O)[C@H]2O)c1N [AICAR, N1-(β-D-ribofuranosyl)-5-aminoimidazole-4-carboxamide], the “effect on SOGA level (intracellular and extracellular)” value (SOGA; 500 μM AICAR, with or without adiponectin, n=4 per group) is reported as “decrease in SOGA that was blocked by adiponectin exposure”.

In the case of CCc1ccc(CCOc2ccc(CC3SC(=O)NC3=O)cc2)nc1 (centres unmarked) [Pioglitazone, pioglitazone], the “concentration of plasma glucose” value (ob/ob mice; untreated ob/ob mice 450±18 mg/dl, p<0.05) is reported as 155 ± 8 mg/dL, the “elevation of circulating adiponectin” value (ob/ob mice; daily oral gavage) is reported as 3 fold and the “increase of SOGA mRNA in the liver” value (ob/ob mice; daily oral gavage, SOGA mRNA/18S RNA) is reported as 40%. For the same molecule, the “elevation of circulating SOGA” value (ob/ob mice; daily oral gavage, plasma 25 kDa SOGA) was 3 fold.

“insulin: NPH Human Insulin, Isophane Suspension (Novolin; Novo Nordisk)” was tested, and the “induction of SOGA (circulating 25 kDa SOGA)” value (NOD mice) was 2 fold.

B1: Adiponectin: hormone provided from adipocyte conditioned media with or without adiponectin (protein, UniProt Q15848 19-244, looked up)
Adiponectin: ETTTQGPGVLLPLPKGACTGWMAGIPGHPGHNGAPGRDGRDGTPGEKGEKGDPGLIGPKGDIGETGVPGAEGPRGFPGIQGRKGEPGEGAYVYRSAFSVGLETYVTIPNMPIRFTKIFYNQQNHYDGSTGKFHCNIPGLYYFAYHITVYMKDVKVSLFKKDKAMLFTYDQYQENNVDQASGSVLLHLEVGDQVWLQVYGEGERNGLYADNDNDSTFTGFLLYHDTN
modifications: in adipocyte conditioned media
For B1, the “increase of SOGA in primary hepatocytes” value (SOGA) was 40% and the “reduction in glucose production” value [1] was 50%.
